Data on 3 compounds can be found in patent publication US20110165601A1, “ASSAY SYSTEM” (THE UNIVERSITY COURT OF THE UNIVERSITY GLASGOW, priority 2006, published 2011).

Assay [1] deals with myocytes. Nature of the assay: Ca2+-contraction assay (rod count by haemocytometer). The class given is cell-based, rabbit. The source says: (§1) The following description illustrates two methods which were used to test permeabilisation of rabbit myocytes by a batch of beta-escin, and to compare two different commercial batches of saponin.
(§2) The haemocytometer method of cell counting was used to count the number of non-permeable myocytes before and after application of the permeabilising agent (either saponin or β-Escin). Freshly dissociated cardiac muscle cells were obtained in a solution of low calcium. These were filtered and transferred into two 13.5 ml test tubes. Each was centrifuged for approximately 12 seconds at 5 g and the supernatant was discarded. Approximately 4.5 ml of EGTA solution was used to re-suspend the pellet in each tube. The contents of both were combined to form the stock suspension.
Physiologically, myofilaments are activated by a rapid increase in the cytosolic Ca^2+ concentration from 0.1 μM to approximately 2 μM which occurs mainly due to Ca^2+ release from the SR (Levick, 2000). The Ca^2+-contraction assay used in this investigation relies upon the fact that cells with permeabilised membranes allow free access of Ca^2+ to the cytosol when exposed to high extracellular Ca^2+ concentrations. This activates the myofilaments of the cell causing it to contract into a ball. Non-permeabilised myocytes retain their characteristic rod shape. The effects of permeabilising agents on the cell population were quantified by counting the proportion of rod-shaped cells.
On each run utilising the Ca^2+-contraction assay, sixteen 13.5 ml test tubes were obtained. Eight of these were labelled “EGTA” whilst the remaining eight were labelled “CaEGTA”. Within both sets of eight, individual tubes were labelled control 1, control 2, 0.01, 0.1, 1, 10, 100 and 1000.
The cell stock suspension was agitated to ensure uniform distribution of cells and exactly 1 ml was pipetted into each tube labelled “EGTA”. These tubes were then transferred to the fridge to prevent degradation of the cells.
Each tube was put through the following protocol in turn. The required volume of permeabilising agent was added (see Table 2) and a stopclock was started. During the two minute incubation time, exactly 0.5 mls of the contents of the “EGTA” tube was withdrawn using a pipette and transferred to the corresponding “CaEGTA” tube.
Once the incubation time had elapsed the tubes were centrifuged for approximately 12 seconds at 5 g and the supernatant was withdrawn. The “EGTA” pellet was re-suspended in 0.5 mls of EGTA solution and the “CaEGTA” pellet in 0.5 mls of CeEGTA solution. Both tubes were agitated and the cell density determined by haemocytometer. The protocol was followed for all concentrations under investigation; for the two controls no permeabilising agent was added and thus no incubation step was required.
The effect of exposing myocytes to exceedingly high concentrations of permeabilising agent ([…]) was investigated for both β-Escin and saponin. The protocol followed was the same as the Ca^2+-contraction assay protocol (described above). 100 μl of the 100 mg/ml stock was added to the 1 ml suspension volume to achieve the required concentration (see Table 2). A control plus a low concentration of agent (1 μg/ml) were also studied to validate results.
The concentrations investigated were 1, 10, 100 and 1000 μg/ml for each saponin plus two controls. The experimental protocol followed was the same as for the Ca^2+-contraction assay method above.
(§3) Graphs were plotted and non-linear logistic curves were fitted using least squares technique by the Microcal™ Origin™ package (version 5.0, Microcal Software Inc.). ED50 values and their associated errors were also estimated using this software. Analysis of variance (ANOVA) using Tukey's post-test comparison was used to verify significance between ED50 values (GraphPad InStat™, GraphPad Software, V2.05a).

For assay [2], the system named is myocytes. Nature of the assay: Trypan blue assay (access of dye into myocytes). In kind it is cell-based, rabbit.
Description: as §1, §2
Access of the vital dye Trypan blue (MW: 950 approx.) into myocytes was used to evaluate permeabilisation by Saponin (Calbiochem brand) or β-escin. Permeabilised myocytes were identified by positive staining (blue colour) of the cell contents. Cells with intact membranes excluded the dye and it was this population that was counted.
For each run utilising the trypan blue assay, eight 13.5 ml test tubes were obtained. Each was labelled control 1, control 2, 0.1, 1, 10, 100, 1000 or 10000.
The cell stock suspension was agitated to ensure uniform distribution of cells and exactly 1 ml was pipetted into each tube. These were then transferred to the fridge to prevent degradation of the cells. Each tube was put through the following protocol in turn. The required volume of permeabilising agent was added (see Table 2) and a stopclock was started.
Once the incubation time had elapsed the tube was centrifuged for approximately 12 seconds at 5 g and the supernatant was withdrawn. The pellet was re-suspended in 0.5 mls of EGTA solution and 0.5 mls of 0.5% Trypan blue (BDH Laboratory Supplies, Poole, England) in 5 mM EGTA, which had been previously gently heated to ensure that the dye was dissolved. The tube was agitated and cell density determined by hamocytometer counting.
The protocol was followed for all concentrations under investigation; for the two controls no permeabilising agent was added and thus no incubation step was required.
as §3

The test system of a further assay is cardiac myocytes. Kind of assay: Permeabilisation of a sample of cardiac myocytes. In kind it is cell-based. As to conditions: at 1 mg/ml.
A further assay addresses T1, ryanodine receptor (Oryctolagus cuniculus, UniProt P30957).
T1 construct: The atria were removed and discarded whereas the right and left ventricle was kept for experiments; endogenous in cells; host or cells: isolated rabbit ventricular cardiomyocytes, beta-escin permeabilised, frozen and thawed
Nature of the assay: SR Ca2+ release assay (Ca2+ leak from permeabilised cell aggregates). In kind it is cell-based, rabbit. To be noted: after 40 mM caffeine, FIG. 2.

In the next assay the target is T2, SR Ca2+ ATPase (SERCA) (Oryctolagus cuniculus, UniProt P20647).
T2 construct: The atria were removed and discarded whereas the right and left ventricle was kept for experiments; endogenous in cells; host or cells: isolated rabbit ventricular cardiomyocytes, beta-escin permeabilised, frozen and thawed
Nature of the assay: SR uptake assay in permeabilised cell preparations. In kind it is cell-based, rabbit. To be noted: FIG. 1C.

T2 sequence (P20647 1-997 isoform P20647-2): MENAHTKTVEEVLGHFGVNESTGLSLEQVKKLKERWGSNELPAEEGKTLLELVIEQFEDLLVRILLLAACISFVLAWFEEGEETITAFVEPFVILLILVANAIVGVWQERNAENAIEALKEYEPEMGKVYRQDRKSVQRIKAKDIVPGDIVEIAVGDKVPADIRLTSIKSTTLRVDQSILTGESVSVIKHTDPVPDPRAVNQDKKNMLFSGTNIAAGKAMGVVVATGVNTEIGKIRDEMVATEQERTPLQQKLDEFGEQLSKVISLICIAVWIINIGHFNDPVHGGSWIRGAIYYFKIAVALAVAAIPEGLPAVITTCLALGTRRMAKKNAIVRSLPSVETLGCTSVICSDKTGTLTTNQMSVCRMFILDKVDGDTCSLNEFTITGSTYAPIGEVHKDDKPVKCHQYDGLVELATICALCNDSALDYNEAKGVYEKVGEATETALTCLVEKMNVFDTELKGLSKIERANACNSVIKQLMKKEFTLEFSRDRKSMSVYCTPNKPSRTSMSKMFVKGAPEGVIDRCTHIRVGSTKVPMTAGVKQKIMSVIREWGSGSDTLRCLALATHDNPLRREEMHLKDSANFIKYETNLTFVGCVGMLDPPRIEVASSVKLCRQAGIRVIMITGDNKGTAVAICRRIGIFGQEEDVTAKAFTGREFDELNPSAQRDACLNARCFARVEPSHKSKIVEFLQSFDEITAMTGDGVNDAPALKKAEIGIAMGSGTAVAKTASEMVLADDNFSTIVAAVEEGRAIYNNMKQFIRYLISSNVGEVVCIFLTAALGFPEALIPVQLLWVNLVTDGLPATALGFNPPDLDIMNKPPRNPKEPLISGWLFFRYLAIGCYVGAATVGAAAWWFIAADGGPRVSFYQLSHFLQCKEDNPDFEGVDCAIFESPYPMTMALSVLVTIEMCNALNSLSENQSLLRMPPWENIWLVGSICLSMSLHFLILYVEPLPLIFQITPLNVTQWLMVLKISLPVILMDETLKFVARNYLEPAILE
Description for SR Ca2+ ATPase (SERCA): As indicated above the figure, Ca^2+ was added to increase the [Ca^2+] within the aggregate to ˜1.5 μM. No Ca^2+ uptake occurs due to the absence of Mg^2+ (and therefore MgATP). Addition of Me starts the reaction. The initial increase of [Ca^2+] is caused by displacement of Ca^2+ from ATP.
Aliquots of cells are defrosted gradually with the addition of 9 volumes of S1 solution. This was followed by addition of CaCl2 to increase the free [Ca^2+] to ˜1.5 μM (˜100 μM total Ca^2+). The mixture can then be distributed into the 96 or high format arrays. Incubation of the preparation with the compound of interest can occur for 15-20 mins and the SR uptake reaction began by addition of 5.5 mM MgCl2 (with stirring). This provides the substrate (MgATP) to allow SR uptake of Ca^2+. There are two options for measurement: (i) follow the time course of the Ca^2+ uptake profile in detail by measuring every 1-2 s for up to 10 mins (ii) measuring the Ca^2+ concentration at a set time (e.g. 10 mins) after initiation of the reaction. […] These effects can be monitored in detail (option (i)—see FIG. 1 and description thereof for an example) or by simply measuring Fluo-3 fluorescence at one time point (option (ii)).
Description for ryanodine receptor: Ca^2+ uptake is stimulated by addition of an aliquot of Ca^2+. SERCA inhibition is induced by thapsigargin (5 uM).
The cell aggregate preparation is defrosted in 9× volumes of S2 with the addition of 2-3 aliquots of 100 μM CaCl2. The preparation is then aliquoted into the high format wells (96 or 384 well). […] The slow progressive increase in Ca^2+ concentration within the bath reflects Ca^2+ loss from the SR both via the ryanodine receptor and via independent leak pathways. […] As with the assay system above, two options for measurements are possible (i) follow the timecourse of the Ca^2+ release profile in detail by measuring every 1-2 s for 10 mins (ii) measuring the Ca^2+ concentration at a set time (e.g. 10 mins) after initiation of the reaction. Compounds that stimulate the SR Ca^2+ leak will cause the increase of Ca^2+ concentration to occur faster than control (vehicle). Conversely compounds that inhibit the SR Ca^2+ leak will slow the increase of Ca^2+ concentration.

On to β-escin, for which, in the assay with myocytes [1] (Ca2+-contraction assay), the “concentration at which permeabilisation (decrease in rod count in 5 mM Ca2+ EGTA) began” value is 10 µg/mL. Also, the “concentration range over which permeabilisation was produced” value with myocytes [1] (Ca2+-contraction assay) lay within 1 to 10000 µg/mL. For the same compound, the minimum effective concentration with myocytes [1] (Ca2+-contraction assay, 5 mM Ca2+ EGTA) was determined as 100 µg/mL; in the assay with myocytes [2] (trypan blue assay), 100 µg/mL. In addition, the “proportion of cell population hyperpermeable / permeabilised” value with myocytes [1] (at 100 μg/ml), with myocytes [1] (at 1000 μg/ml) and in the assay with myocytes [1] (at 10000 μg/ml) was “Approximately 100%” throughout. For the same compound, the “concentration from which trypan blue began to enter the myocytes” value with myocytes [2] fell in the range of 1 to 10 µg/mL. Further, the results for the “mean rod count excluding dye” value with myocytes [2] (at 0.1 μg/ml) and in the assay with myocytes [2] (at 1 μg/ml) were “approximately 90%” and “approximately 110%”, respectively. The “decrease of mean rod count, of the control value” in the assay on myocytes [2] (at 10 μg/ml) is “approximately 35%”. Further, the “proportion of control population permeable to trypan blue” value with myocytes [2] (at 100 μg/ml), in the assay with myocytes [2] (at 1000 μg/ml) and in the assay on myocytes [2] (at 10000 μg/ml) was “Approximately 100%” in each case. The “proportion of cardiac myocytes permeabilised” value in the assay with cardiac myocytes is “about 10%”.

Turning to `N.N.N.N.N.N.N.N.N.N.N.N.N.N.[Cl-].[Cl-].[Cl-].[Cl-].[Cl-].[Cl-].[O-2].[O-2].[Ru+3].[Ru+3].[Ru+4]` [ruthenium red], the “effect on caffeine-stimulated Ca2+ leak from SR” value at ryanodine receptor is reported as “blocked”.

As to `C/C=C(/C)C(=O)O[C@H]1C(C)=C2[C@H]([C@@H]1OC(=O)CCCCCCC)[C@@](C)(OC(C)=O)C[C@H](OC(=O)CCC)[C@@]1(O)[C@H]2OC(=O)[C@@]1(C)O` [thapsigargin], on SR Ca2+ ATPase (SERCA), the “effect on SERCA” value is reported as “inhibition”.
